Reference: the CheMixHub viscosity set
± gives the uncertainty stated by the source.

Assay: xn = mol fraction of the nth substance listed

CCCCOCCOCCO + CCCO
viscosity [mPa·s], 101 kPa
Settings | 298.15 K | 308.15 K | 318.15 K
x1 = 0.011 | 1.95 ± 0.018 | 1.525 ± 0.014 | 1.246 ± 0.012
x1 = 0.042 | 2.019 ± 0.018 | 1.576 ± 0.015 | 1.293 ± 0.012
x1 = 0.074 | 2.098 ± 0.019 | 1.633 ± 0.015 | 1.337 ± 0.013
x1 = 0.1191 | 2.202 ± 0.02 | 1.711 ± 0.016 | 1.409 ± 0.013
x1 = 0.1629 | 2.325 ± 0.022 | 1.802 ± 0.017 | 1.488 ± 0.014
x1 = 0.2086 | 2.446 ± 0.023 | 1.889 ± 0.018 | 1.576 ± 0.015
x1 = 0.2587 | 2.587 ± 0.025 | 2.024 ± 0.02 | 1.669 ± 0.016
x1 = 0.3152 | 2.748 ± 0.027 | 2.149 ± 0.021 | 1.767 ± 0.018
x1 = 0.3289 | 2.787 ± 0.027 | 2.179 ± 0.022 | 1.795 ± 0.018
x1 = 0.3796 | 2.959 ± 0.03 | 2.283 ± 0.023 | 1.89 ± 0.019
x1 = 0.4568 | 3.213 ± 0.034 | 2.435 ± 0.026 | 2.034 ± 0.021
x1 = 0.5093 | 3.371 ± 0.036 | 2.548 ± 0.028 | 2.123 ± 0.022
x1 = 0.5833 | 3.615 ± 0.04 | 2.714 ± 0.03 | 2.263 ± 0.025
x1 = 0.6316 | 3.764 ± 0.043 | 2.814 ± 0.032 | 2.346 ± 0.026
x1 = 0.6882 | 3.928 ± 0.046 | 2.932 ± 0.034 | 2.442 ± 0.028
x1 = 0.7604 | 4.153 ± 0.05 | 3.085 ± 0.037 | 2.564 ± 0.03
x1 = 0.8285 | 4.361 ± 0.054 | 3.228 ± 0.04 | 2.677 ± 0.032
x1 = 0.9045 | 4.598 ± 0.059 | 3.388 ± 0.044 | 2.797 ± 0.035
x1 = 0.9511 | 4.734 ± 0.062 | 3.481 ± 0.046 | 2.875 ± 0.037

Cc1cccc(C)c1 + CCCO
viscosity [mPa·s], 100 kPa
Settings | 298.15 K | 308.15 K
x2 = 0.0641 | 0.5986 ± 0.072 | 0.5469 ± 0.066
x2 = 0.125 | 0.604 ± 0.073 | 0.5561 ± 0.067
x2 = 0.2247 | 0.6335 ± 0.076 | 0.5935 ± 0.071
x2 = 0.3538 | 0.694 ± 0.083 | 0.633 ± 0.076
x2 = 0.4693 | 0.779 ± 0.094 | 0.6938 ± 0.083
x2 = 0.5733 | 0.888 ± 0.11 | 0.7826 ± 0.094
x2 = 0.6675 | 1.006 ± 0.12 | 0.8918 ± 0.11
x2 = 0.7531 | 1.144 ± 0.14 | 0.964 ± 0.12
x2 = 0.8313 | 1.316 ± 0.16 | 1.102 ± 0.13
x2 = 0.903 | 1.509 ± 0.18 | 1.277 ± 0.15
x2 = 0.969 | 1.796 ± 0.22 | 1.464 ± 0.18

O=S1(=O)CCCC1 + CCCO
viscosity [mPa·s], 101 kPa
Settings | x1 = 0.0761 | x1 = 0.1702 | x1 = 0.2436 | x1 = 0.3357 | x1 = 0.4393 | x1 = 0.5374 | x1 = 0.6403 | x1 = 0.7554 | x1 = 0.8835
303.15 K | 1.648 ± 0.018 | 1.731 ± 0.018 | 1.863 ± 0.02 | 2.093 ± 0.023 | 2.443 ± 0.028 | 2.894 ± 0.034 | 3.567 ± 0.044 | 4.714 ± 0.061 | 6.855 ± 0.094
308.15 K | 1.477 ± 0.015 | 1.551 ± 0.016 | 1.671 ± 0.018 | 1.876 ± 0.02 | 2.191 ± 0.024 | 2.595 ± 0.03 | 3.198 ± 0.038 | 4.214 ± 0.051 | 6.07 ± 0.076
313.15 K | 1.329 ± 0.013 | 1.399 ± 0.014 | 1.506 ± 0.016 | 1.691 ± 0.018 | 1.976 ± 0.022 | 2.342 ± 0.026 | 2.884 ± 0.033 | 3.788 ± 0.044 | 5.424 ± 0.064
